Laboratory results as given in article PMC9105517, “Biological Activities of Lichen-Derived Monoaromatic Compounds” (Molecules, 2022).
Values after ≈ are worked out from the molar mass of the structure shown. Read-outs that look alike come from different tables or passages of the source.

Legend:
Staphylococcus aureus [1] = test: Agar well diffusion antimicrobial assay; assay type: cell-based; details: 8 mm wells
Protocol: (§1) The agar well diffusion method was utilized to investigate the antibacterial activity of the isolated compounds on antibiotic-resistant, pathogenic bacteria E. faecium, S. aureus, and A. baumannii. Three bacterial pathogens were cultured in nutrient broth at 37 °C for 18 h. The cultures were diluted with sterile 0.9% NaCl to obtain bacterial solutions of 1.5 × 10^8 CFU/mL. This solution with a volume of 100 μL was spread on a Mueller-Hinton agar plate. Holes with a diameter of 8 mm were punched aseptically to create wells on the surface of the Mueller–Hinton agar. The compounds were dissolved in DMSO. The amount of 50 µg of each compound solution was inserted into the wells. The plates were incubated at 37 °C for 16–18 h and the antibacterial activity of each compound was recorded by measuring the diameters of the inhibition zones surrounding the wells. The determination of the minimum inhibitory concentration of 9a against Staphylococcus aureus was performed by the agar dilution method. Compound 9a was dissolved in DMSO to the final concentration of 1 mg/mL and then diluted with Mueller–Hinton agar (MHA) to the concentration range of 0, 1, 2, 4, 8, 16, 32, 64 μg/mL as the final concentrations in MHA plates. S. aureus was cultured in nutrient broth at 37 °C overnight with shaking. […] 1 μL of the diluted bacterial solution (10^4 CFU) was placed on the surface of the MHA plates and the plates were incubated at 37 °C for 16–18 h. The MIC value was recorded as the lowest concentration of 9a that inhibited the growth of S. aureus. Kanamycin was chosen as the positive control in this experiment, while DMSO was regarded as a control.

Acinetobacter baumannii = test: Agar well diffusion antimicrobial assay; assay type: cell-based; details: 8 mm wells
Protocol: as §1

Enterococcus faecium = test: Agar well diffusion antimicrobial assay; assay type: cell-based; details: 8 mm wells
Protocol: as §1

[2] = molecular target: T1, Saccharomyces cerevisiae α-glucosidase (E.C 3.2.1.20) (Saccharomyces cerevisiae, UniProt P53341); test: biochemical
T1 construct: purchased Sigma Aldrich Co (Saint Louis, MO, USA)
Protocol: The alpha-glucosidase (0.2 U/mL) and substrate (5.0 mM pNPG) were dissolved in 100 mM pH 6.9 sodium phosphate buffer. The inhibitor (50 µL) was preincubated with alpha-glucosidase at 37 °C for 20 min, and the substrate (40 µL) was subsequently added to the reaction mixture. The enzymatic reaction was conducted at 37 °C for 20 min and ended by adding 0.2 M Na2CO3 (130 μL). Enzymatic activity was quantitatively measured at an absorbance of 405 nm (CLARIOstar plus, BMG LABTECH, Ortenberg, Germany). All samples were analyzed in triplicate at five different concentrations around the IC50 values, and the mean values were retained. The following equation was used to calculate the inhibition percentage (%): Inhibition (%) = [1 − (Asample/Acontrol)] × 100.

alpha-glucosidase = test system: alpha-glucosidase; parameters: method as in doi:10.1007/s10600-021-03404-z, PMID 33656403, PMID 29968482, PMID 18981604; details: cited from earlier work
various microorganisms = test system: various microorganisms; parameters: method as in doi:10.1007/s11101-010-9201-1, PMID 12487331; details: cited from earlier work
[3] = test system: S. aureus, Bacillus subtilis, Pseudomonas aeruginosa, Candida albicans, Escherichia coli, and Aspergillus niger; parameters: method as in PMID 3834834; details: various microorganisms; cited from earlier work
Staphylococcus aureus [4] = test: Minimum inhibitory concentration by agar dilution method; assay type: cell-based; details: 37 °C, 16–18 h
Protocol: The agar well diffusion method was utilized to investigate the antibacterial activity of the isolated compounds on antibiotic-resistant, pathogenic bacteria E. faecium, S. aureus, and A. baumannii. Three bacterial pathogens were cultured in nutrient broth at 37 °C for 18 h. The cultures were diluted with sterile 0.9% NaCl to obtain bacterial solutions of 1.5 × 10^8 CFU/mL. This solution with a volume of 100 μL was spread on a Mueller-Hinton agar plate. Holes with a diameter of 8 mm were punched aseptically to create wells on the surface of the Mueller–Hinton agar. The compounds were dissolved in DMSO. The amount of 50 µg of each compound solution was inserted into the wells. The plates were incubated at 37 °C for 16–18 h and the antibacterial activity of each compound was recorded by measuring the diameters of the inhibition zones surrounding the wells. The determination of the minimum inhibitory concentration of 9a against Staphylococcus aureus was performed by the agar dilution method. Compound 9a was dissolved in DMSO to the final concentration of 1 mg/mL and then diluted with Mueller–Hinton agar (MHA) to the concentration range of 0, 1, 2, 4, 8, 16, 32, 64 μg/mL as the final concentrations in MHA plates. S. aureus was cultured in nutrient broth at 37 °C overnight with shaking. […] The MIC value was recorded as the lowest concentration of 9a that inhibited the growth of S. aureus. […]

[5] = in vitro, 37 °C, pH 6.9, triplicate, read-out: IC50, alpha-glucosidase inhibitory activity (converted)

T1 sequence (P53341 whole entry): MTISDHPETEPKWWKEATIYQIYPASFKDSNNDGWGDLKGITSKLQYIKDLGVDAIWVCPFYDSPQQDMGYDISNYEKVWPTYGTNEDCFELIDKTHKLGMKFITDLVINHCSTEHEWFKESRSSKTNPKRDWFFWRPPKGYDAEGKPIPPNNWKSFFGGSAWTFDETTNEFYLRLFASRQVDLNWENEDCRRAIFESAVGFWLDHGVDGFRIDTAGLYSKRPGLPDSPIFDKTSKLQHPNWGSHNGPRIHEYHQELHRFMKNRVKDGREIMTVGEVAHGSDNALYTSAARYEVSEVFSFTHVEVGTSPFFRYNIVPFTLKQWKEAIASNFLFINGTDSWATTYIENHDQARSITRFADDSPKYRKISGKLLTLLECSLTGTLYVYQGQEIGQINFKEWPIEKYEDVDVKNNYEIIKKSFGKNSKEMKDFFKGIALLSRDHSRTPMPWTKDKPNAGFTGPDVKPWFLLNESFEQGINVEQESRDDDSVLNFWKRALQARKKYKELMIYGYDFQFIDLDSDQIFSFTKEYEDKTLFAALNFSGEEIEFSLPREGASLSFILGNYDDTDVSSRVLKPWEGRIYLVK

CN[C@@H]1[C@@H](O[C@H]2O[C@H](CO)[C@@H](N)[C@H](O)[C@H]2O)OC2C[C@@H](N)[C@@H](O[C@H]3[C@H](O)[C@@H](O)[C@H](N)C[C@@H]3N)OC2[C@@H]1O (some centres unmarked) [Apramycin, reference compound]
zone of inhibition at 50 µg/mL (Staphylococcus aureus [1]): 21 mm
zone of inhibition at 50 µg/mL (Acinetobacter baumannii): 20 mm
zone of inhibition at 50 µg/mL (Enterococcus faecium): 21 mm

O=C(O)c1cc(O)cc(O)c1 [Compound 1, 3,5-dihydroxybenzoic acid]
IC50 [2, 5]: 729 µM

COC(=O)c1cc(O)cc(O)c1 [Compound 2, 3,5-dihydroxybenzoate methyl]
IC50 [2, 5]: 939 µM

Cc1c(O)cc(C(=O)O)cc1O [Compound 3, 3,5-dihydroxy-4-methylbenzoic acid]
IC50 [2]: 143 µM

COc1c(O)cc(C(=O)O)cc1O [Compound 4, 3,5-dihydroxy-4-methoxylbenzoic acid]
IC50 [2, 5]: 929 µM

Cc1cc(O)c(O)c(O)c1 [Compound 5, 3-hydroxyorcinol]
IC50 [2, 5]: 694 µM

Cc1cc(O)c(C=O)c(O)c1 [Compound 6, atranol]
IC50 [2]: > 1970 µM

COC(=O)c1c(C)cc(O)c(C=O)c1O [Compound 7, methyl hematommate]
alpha-glucosidase inhibition (in words) (alpha-glucosidase): potent activity
IC50 [2, 5]: 294 µM

COC(=O)c1c(C)cc(O)c(C)c1O [Compound 8, methyl β-orsellinate]
zone of inhibition at 50 µg/mL (Staphylococcus aureus [1]): 18 mm
zone of inhibition at 50 µg/mL (Acinetobacter baumannii): 16 mm
zone of inhibition at 50 µg/mL (Enterococcus faecium): 13 mm
MIC (various microorganisms): 30 to 500 µg/mL
MIC [3]: 80 to 160 µg/mL
alpha-glucosidase inhibition (in words) (alpha-glucosidase): weak inhibitors
IC50 [2]: > 1530 µM

COC(=O)c1c(C)c(Br)c(O)c(C)c1O [Compound 8a, methyl 5-bromo-β-orsellinate]
zone of inhibition at 50 µg/mL (Staphylococcus aureus [1]): 12 mm
IC50 [2]: 606 µM

COC(=O)c1c(C)cc(O)cc1O [Compound 9, methyl orsellinate]
zone of inhibition at 50 µg/mL (Staphylococcus aureus [1]): 13 mm
MIC (various microorganisms): 30 to 500 µg/mL
alpha-glucosidase inhibition (in words) (alpha-glucosidase): weak inhibitors
IC50 [2]: > 1650 µM

COC(=O)c1c(C)c(Br)c(O)c(Br)c1O [Compound 9a, methyl 3,5-dibromo-orsellinate]
zone of inhibition at 50 µg/mL (Staphylococcus aureus [1]): 29 mm
IC50 [2]: 459 µM
MIC (Staphylococcus aureus [4]; read-out: MIC): 4 µg/mL (≈ 11.8 µM)

Cc1cc(O)cc(O)c1C(=O)OCC(O)C(O)CO [Compound 10, D-montagnetol]
IC50 [2]: > 1100 µM

Cc1cc(O)c(Br)c(O)c1C(=O)OCC(O)C(O)CO [Compound 10a, 3-bromo-D-montagnetol]
zone of inhibition at 50 µg/mL (Enterococcus faecium): 13 mm
IC50 [2]: 381 µM

Cc1c(Br)c(O)c(Br)c(O)c1C(=O)OCC(O)C(O)CO [Compound 10b, 3,5-dibromo-D-montagnetol]
IC50 [2]: 301 µM

CCOC(=O)c1c(C)cc(O)cc1O [ethyl orsellinate]
MIC (various microorganisms): 30 to 500 µg/mL

NC[C@H]1O[C@H](O[C@H]2[C@H](O)[C@@H](O[C@H]3O[C@H](CO)[C@@H](O)[C@H](N)[C@H]3O)[C@H](N)C[C@@H]2N)[C@H](O)[C@@H](O)[C@@H]1O [kanamycin, reference compound]
MIC (Staphylococcus aureus [4]): 4 µg/mL (≈ 8.26 µM)

Cc1cc(O)cc(O)c1 [orcinol]
MIC (various microorganisms): 30 to 500 µg/mL

cristiferide A
alpha-glucosidase inhibition (in words) (alpha-glucosidase): potent activity
